IC50 data for 5 compounds are collected here from patent US8513229B2, “4-Azetidinyl-1-phenyl-cyclohexane antagonists of CCR2” (Janssen Pharmaceutica NV, priority 2009, dated 2013).

In this assay the target is T1, CCR2 (Homo sapiens, UniProt P41597).
T1 construct: host or cells: THP-1 human monocytic cells
T1 sequence (P41597 1-360 isoform P41597-2): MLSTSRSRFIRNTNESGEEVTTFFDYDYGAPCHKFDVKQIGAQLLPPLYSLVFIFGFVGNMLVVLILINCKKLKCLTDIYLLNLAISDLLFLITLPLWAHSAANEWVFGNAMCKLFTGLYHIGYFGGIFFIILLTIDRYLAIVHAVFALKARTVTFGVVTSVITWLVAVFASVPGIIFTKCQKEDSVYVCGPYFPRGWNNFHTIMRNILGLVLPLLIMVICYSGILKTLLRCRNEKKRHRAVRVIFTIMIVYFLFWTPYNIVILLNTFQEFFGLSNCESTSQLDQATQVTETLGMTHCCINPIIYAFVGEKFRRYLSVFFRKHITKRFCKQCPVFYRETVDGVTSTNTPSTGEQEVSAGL
Put plainly: MCP-1 Receptor Binding Assay in THP-1 Cells. The note with it: 0.5 nM 125I labeled MCP-1, 2 hours at 30° C., read-out: Inhibition of MCP-1 Binding IC50 CCR2 Binding. On the procedure:
MCP-1 Receptor Binding Assay in THP-1 Cells
Human monocytic cell line THP-1 cells were obtained from American Type Culture Collection (Manassas, Va., USA). […] The cell density was maintained […].
1 μM cold MCP-1 was used for nonspecific binding.

As a reminder, the IC50 is the concentration that gives 50% inhibition. With `CS(=O)(=O)N(c1cc(C(=O)NCC(=O)NC2CN(C3CCC(c4ccccc4)CC3)C2)cc(C(F)(F)F)c1)S(C)(=O)=O` (centres unmarked) [Example 80, 3-Bis methanesulfonyl-N-{[1-(4-phenyl-cyclohexyl)-azetidin-3-ylcarbamoyl]-methyl}-5-trifluoromethyl-benzamide], the half-maximal inhibitory concentration (IC50) worked out at 420 nM. Then `O=C(CNC(=O)c1cc(O)cc(C(F)(F)F)c1)NC1CN(C2CCC(c3ccccc3)CC2)C1` (centres unmarked) [Example 81, 3-Hydroxy-N-{[1-(4-phenyl-cyclohexyl)-azetidin-3-ylcarbamoyl]-methyl}-5-trifluoromethyl-benzamide], with 11000 nM; and `CC(C)(C)NC(=O)Nc1cc(C(=O)NCC(=O)NC2CN(C3CCC(c4ccccc4)CC3)C2)cc(C(F)(F)F)c1` (centres unmarked) [Example 82, 3-(3-tert-Butyl-ureido)-N-{[1-(4-phenyl-cyclohexyl)-azetidin-3-ylcarbamoyl]-methyl}-5-trifluoromethyl-benzamide], with 50 nM; and `COc1ccc(C2(N)CCC(N3CC(NC(=O)CNC(=O)c4cccc(C(F)(F)F)c4)C3)CC2)cc1` (centres unmarked) [Example 86, N-({1-[4-Amino-4-(4-methoxy-phenyl)-cyclohexyl]-azetidin-3-ylcarbamoyl}-methyl)-3-trifluoromethyl-benzamide], with 320 nM.

Take “N-({1-[4-(4,4-bis-Methanesulfonylamino-phenyl)-cyclohexyl]-azetidin-3-ylcarbamoyl}-methyl)-3-trifluoromethyl-benzamide [Example 17]”: the IC50 came out at 27 nM.
